Test results: ChEMBL document CHEMBL3580621, “The Hippo Pathway and YAP/TAZ-TEAD Protein-Protein Interaction as Targets for Regenerative Medicine and Cancer Treatment” (J Med Chem, 2015)

Species on record: Homo sapiens
Assay: Inhibition of HA-tagged YAP/Gal4-tagged TEAD (unknown origin) interaction at 2.5 uM by Coimmunoprecipitation assay

## VERTEPORFIN
  inhibition: > 50%
